Source: ChEMBL document CHEMBL1201862, “PubChem BioAssay data set” (2004)
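In this assay, cells in 96-well plates receive the compound at five concentrations for 48 hours. Endpoints are linearly interpolated between the surrounding concentrations. Here, GI50 denotes the concentration required for 50% inhibition of growth.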 Calls of active or inactive are those of the source. No stated cut-off is given here; in the data, active = GI50 up to about 1.1 µM and inactive = higher.

Key:
Experiment in all cases: growth of human tumour cells (NCI), 48 h
[1] = test system: HCT-116
[2] = test system: HCC 2998
[3] = test system: SK-MEL-5
[4] = test system: NCI-H522
[5] = test system: UACC-62
[6] = test system: SK-OV-3
[7] = test system: SW-620
[8] = test system: SK-MEL-2
[9] = test system: LOX IMVI
[10] = test system: A549
[11] = test system: T47D
[12] = test system: HL-60
[13] = test system: CAKI-1
[14] = test system: COLO 205
[15] = test system: SNB-75
[16] = test system: NCI-H23
[17] = test system: M14
[18] = test system: Malme-3M
[19] = test system: U-251

Row | Structure (SMILES) | GI50 [1] | GI50 [2] | GI50 [3] | GI50 [4] | GI50 [5] | GI50 [6] | GI50 [7] | GI50 [8] | GI50 [9] | GI50 [10] | GI50 [11] | GI50 [12] | GI50 [13] | GI50 [14] | GI50 [15] | GI50 [16] | GI50 [17] | GI50 [18] | GI50 [19]
1 | CCOc1cc(NC(C)=O)ccc1C(=O)NN1C(=O)C(Cl)C1c1ccco1 (stereo unspecified) | 20.7 µM (inactive) | 16 µM (inactive) | 13.3 µM (inactive) | 10.6 µM (inactive) | 12.6 µM (inactive) | 18.3 µM (inactive) | 32.3 µM (inactive) | 18.6 µM (inactive) | 3.99 µM (inactive) | 18.7 µM (inactive) | 16.7 µM (inactive) | 18.4 µM (inactive) | 17.1 µM (inactive) | 17.2 µM (inactive) | 13.8 µM (inactive) | 16.6 µM (inactive) | 15.4 µM (inactive) | 11.7 µM (inactive) | 
2 | Cc1cc(C)c2c(-c3ccccc3)cc(=O)[nH]c2c1 | > 100 µM (inactive) | > 100 µM (inactive) | > 100 µM (inactive) | > 100 µM (inactive) | > 100 µM (inactive) | > 100 µM (inactive) | > 100 µM (inactive) | > 100 µM (inactive) | > 100 µM (inactive) | > 100 µM (inactive) | > 100 µM (inactive) | > 100 µM (inactive) |  | > 100 µM (inactive) | > 100 µM (inactive) | > 100 µM (inactive) | > 100 µM (inactive) | > 100 µM (inactive) | > 100 µM (inactive)
3 | CCCCCCCc1ccc(-c2nnc(/N=N/c3ccc(OCCCCC)cc3)s2)s1 | > 100 µM (inactive) | > 100 µM (inactive) | > 100 µM (inactive) | > 100 µM (inactive) | > 100 µM (inactive) | > 100 µM (inactive) | > 100 µM (inactive) | > 100 µM (inactive) |  | > 100 µM (inactive) | > 100 µM (inactive) | > 100 µM (inactive) | > 100 µM (inactive) | > 100 µM (inactive) | > 100 µM (inactive) | > 100 µM (inactive) | > 100 µM (inactive) | > 100 µM (inactive) | > 100 µM (inactive)
4 | CNc1cc2oc(=O)cc(C)c2cc1C | > 100 µM (inactive) | > 100 µM (inactive) | 30.1 µM (inactive) | > 100 µM (inactive) | 72.6 µM (inactive) |  | > 100 µM (inactive) | > 100 µM (inactive) | > 100 µM (inactive) | > 100 µM (inactive) | > 100 µM (inactive) | 25.4 µM (inactive) | > 100 µM (inactive) | > 100 µM (inactive) | 85.3 µM (inactive) | > 100 µM (inactive) | > 100 µM (inactive) | > 100 µM (inactive) | > 100 µM (inactive)
5 | c1ccc(/N=c2/sc3ccccc3s/c2=N/c2ccccc2)cc1 | 1.72 µM (inactive) | 1.84 µM (inactive) | 1.99 µM (inactive) | 1.56 µM (inactive) | 1.36 µM (inactive) | 2.81 µM (inactive) | 1.72 µM (inactive) | 1.86 µM (inactive) | 1.7 µM (inactive) | 2.54 µM (inactive) | 1.65 µM (inactive) | 6.41 µM (inactive) | 1.87 µM (inactive) | 1.92 µM (inactive) | 2.82 µM (inactive) | 1.96 µM (inactive) |  | 1.86 µM (inactive) | 1.86 µM (inactive)
6 | COc1ccccc1C1=C2C(=O)N(C)C(c3ccccc3OC)=C2C(=O)N1C | 37.4 µM (inactive) | > 100 µM (inactive) | > 100 µM (inactive) | 43.2 µM (inactive) | > 100 µM (inactive) | 69.8 µM (inactive) | > 100 µM (inactive) |  | > 100 µM (inactive) | 44.1 µM (inactive) | 71.3 µM (inactive) | > 100 µM (inactive) | > 100 µM (inactive) | > 100 µM (inactive) |  | 59 µM (inactive) | > 100 µM (inactive) | 45.4 µM (inactive) | 37.9 µM (inactive)
7 | COc1cc(OC)cc(-n2c(N)c(-c3nc4ccccc4s3)c3ccc([N+](=O)[O-])cc3c2=O)c1 | 24.9 µM (inactive) | 84.5 µM (inactive) | 45.8 µM (inactive) | 23.9 µM (inactive) | > 100 µM (inactive) | 79.6 µM (inactive) | > 100 µM (inactive) |  | > 100 µM (inactive) |  | 17.2 µM (inactive) | 0.208 µM (active) | 31.8 µM (inactive) | 30.4 µM (inactive) | 27.8 µM (inactive) | 77.4 µM (inactive) |  | 32.5 µM (inactive) | 34.1 µM (inactive)
8 | O=C1c2c(Br)sc(Br)c2[C@@H](NC(=O)C(F)(F)F)C1Br (stereo partly specified) |  | 3.1 µM (inactive) | 2.8 µM (inactive) | 2.03 µM (inactive) | 3.66 µM (inactive) | 18.7 µM (inactive) | 2.7 µM (inactive) | 5.82 µM (inactive) | 1.57 µM (inactive) | 17.1 µM (inactive) | 4.11 µM (inactive) | 0.631 µM (active) | 3.6 µM (inactive) | 2.01 µM (inactive) | 4.92 µM (inactive) | 2.53 µM (inactive) | 2.34 µM (inactive) | 2.24 µM (inactive) | 2.93 µM (inactive)
